Measurements from patent US11999716B2, “WDR5 inhibitors and modulators” (priority 2018, dated 2024).

system: MV4:11 human cancer cell lines; experiment: Cellular viability / anti-proliferative activity, CellTiter-Glo, 5 day protocol; assay type: cell-based; conditions: Homo sapiens, MV4-11, 120 h, MV4:11 cells; 5 day incubation; CellTiter-Glo; mean of minimum two replicates; read-out: GI50 on cellular proliferation of MV4:11 human cancer cell lines
Description: Cellular Viability of Human Tumor Cell Lines
Anti proliferative activity using MLL-harboring cell lines. […] Viability assays are performed by dispensing 200 cells at 7200 cells/mL into each well of an opaque 384-well plate and adding compounds at the indicated concentrations in a final volume of 32 μL and a final concentration of DMSO of 0.3% for all samples. A certain range of compound concentrations is made through a series of 2-fold dilutions starting 30 μM at the highest, total 22 dilutions. After a set incubation period, 5 day protocol, the viability of cells in each well is assessed using the CellTiter-Glo assay (Promega), read on a 96 Microplane Luminometer (Cytation 3, BioTek). Serial dilutions of each cell type are performed in all assays to generate standard curves and the final densities of cells are determined within the dynamic range of the instrument. GI50 values are calculated based on XLfit software (IDBS, Guildford, UK) with Sigmoidal Dose-Response Model. Each compound is tested in minimum of two replicates. Data are expressed as mean.

SMILES	GI50 [nM]
Cc1nccn1Cc1cc2c(c(-c3cn(C)nc3C(F)(F)F)c1)CCN(Cc1cn(C(C)C)c3ccccc13)C2=O [Example 193, 2-((1-Isopropyl-1H-indol-3-yl)methyl)-7-((2-methyl-1H-imidazol-1-yl)methyl)-5-(1-methyl-3-(trifluoromethyl)-1H-pyrazol-4-yl)-3,4-dihydroisoquinolin-1(2H)-one]	2330
Cc1cccnc1CN1CCc2c(cc(Cn3ccnc3C)cc2-c2cn(C)nc2C(F)(F)F)C1=O [Example 181, 7-((2-Methyl-1H-imidazol-1-yl)methyl)-5-(1-methyl-3-(trifluoromethyl)-1H-pyrazol-4-yl)-2-((3-methylpyridin-2-yl)methyl)-3,4-dihydroisoquinolin-1(2H)-one]	3460
COc1cc(CN2CCc3c(cc(Cn4ccn(C)c4=N)cc3-c3cn(C)nc3C)C2=O)cc(OC)c1 [Example 70, 2-(3,5-Dimethoxybenzyl)-5-(1,3-dimethyl-1H-pyrazol-4-yl)-7-((2-imino-3-methyl-2,3-dihydro-1H-imidazol-1-yl)methyl)-3,4-dihydroisoquinolin-1(2H)-one]	77
COc1ccnc([C@H](C2CC2)N2CCc3c(cc(Cn4ccnc4)cc3-c3cn(C)nc3C)C2=O)c1 [Example 211, (S)-7-((1H-Imidazol-1-yl)methyl)-2-(cyclopropyl(4-methoxypyridin-2-yl)methyl)-5-(1,3-dimethyl-1H-pyrazol-4-yl)-3,4-dihydroisoquinolin-1(2H)-one]	84
CCn1cc(-c2cc(Cn3ccnc3C3CC3)cc3c2CCN(Cc2cc(C)nn2C)C3=O)c(C(F)(F)F)n1 [Example 14, 7-((2-Cyclopropyl-1H-imidazol-1-yl)methyl)-2-((1,3-dimethyl-1H-pyrazol-5-yl)methyl)-5-(1-ethyl-3-(trifluoromethyl)-1H-pyrazol-4-yl)-3,4-dihydroisoquinolin-1(2H)-one]	> 938
COc1ccnc([C@H](C)N2CCc3c(cc(Cn4ccnc4C)cc3-c3c[nH]nc3C(F)(F)F)C2=O)c1 [Example 237, (S)-2-(1-(4-methoxypyridin-2-yl)ethyl)-7-((2-methyl-1H-imidazol-1-yl)methyl)-5-(3-(trifluoromethyl)-1H-pyrazol-4-yl)-3,4-dihydroisoquinolin-1(2H)-one]	< 50
CCn1cc(-c2cc(Cn3ccoc3=N)cc3c2CCN(Cc2cc(C)nn2C)C3=O)c(C(F)(F)F)n1 [Example 94, 2-((1,3-Dimethyl-1H-pyrazol-5-yl)methyl)-5-(1-ethyl-3-(trifluoromethyl)-1H-pyrazol-4-yl)-7-((2-iminooxazol-3(2H)-yl)methyl)-3,4-dihydroisoquinolin-1(2H)-one]	159
CCn1cc(-c2cc(Cn3ccn(C)c3=N)cc3c2CCN(Cc2cn(C)nc2C)C3=O)c(C(F)(F)F)n1 [Example 77, 2-((1,3-Dimethyl-1H-pyrazol-4-yl)methyl)-5-(1-ethyl-3-(trifluoromethyl)-1H-pyrazol-4-yl)-7-((2-imino-3-methyl-2,3-dihydro-1H-imidazol-1-yl)methyl)-3,4-dihydroisoquinolin-1(2H)-one]	> 938
COc1cc(CN2CCc3c(cc(Cn4ccn(C)c4=N)cc3-c3ncc(F)cc3C)C2=O)cc(OC)c1 [Example 59, 2-(3,5-Dimethoxybenzyl)-5-(5-fluoro-3-methylpyridin-2-yl)-7-((2-imino-3-methyl-2,3-dihydro-1H-imidazol-1-yl)methyl)-3,4-dihydroisoquinolin-1(2H)-one]	274
COc1cc(CN2CCc3c(OC4CCC4)cc(Cn4ccoc4=N)cc3C2=O)cc(OC)c1 [Example 92, 5-Cyclobutoxy-2-(3,5-dimethoxybenzyl)-7-((2-iminooxazol-3(2H)-yl)methyl)-3,4-dihydroisoquinolin-1(2H)-one]	> 938
Cc1nccn1Cc1cc2c(c(-c3cn(C)nc3C(F)(F)F)c1)CCN(c1cnccc1-c1ccccc1)C2=O [Example 246, 7-((2-Methyl-1H-imidazol-1-yl)methyl)-5-(1-methyl-3-(trifluoromethyl)-1H-pyrazol-4-yl)-2-(4-phenylpyridin-3-yl)-3,4-dihydroisoquinolin-1(2H)-one]	1870
COc1ccnc(CN2CCc3c(cc(CN4CCN(C5CC5)C4=N)cc3-c3cn(C)nc3C(F)(F)F)C2=O)c1 [Example 44, 7-((3-Cyclopropyl-2-iminoimidazolidin-1-yl)methyl)-2-((4-methoxypyridin-2-yl)methyl)-5-(1-methyl-3-(trifluoromethyl)-1H-pyrazol-4-yl)-3,4-dihydroisoquinolin-1(2H)-one]	< 50
Cc1cc([C@H](C)N2CCc3c(cc(Cn4ccn(C)c4=N)cc3-c3cn(C)nc3C(F)(F)F)C2=O)ccc1F [Example 79, (S)-2-(1-(4-Fluoro-3-methylphenyl)ethyl)-7-((2-imino-3-methyl-2,3-dihydro-1H-imidazol-1-yl)methyl)-5-(1-methyl-3-(trifluoromethyl)-1H-pyrazol-4-yl)-3,4-dihydroisoquinolin-1(2H)-one]	< 50
Cc1cc([C@H](C)N2CCc3c(cc(Cn4ccnc4)cc3-c3cn(C)nc3C(F)(F)F)C2=O)ncc1F [Example 185, (S)-7-((1H-Imidazol-1-yl)methyl)-2-(1-(5-fluoro-4-methylpyridin-2-yl)ethyl)-5-(1-methyl-3-(trifluoromethyl)-1H-pyrazol-4-yl)-3,4-dihydroisoquinolin-1(2H)-one]	< 50
CCn1cc(-c2cc(Cc3nccn3C)cc3c2CCN([C@@H](C)c2cc(OC)ccn2)C3=O)c(C(F)(F)F)n1 [Example 254, (S)-5-(1-Ethyl-3-(trifluoromethyl)-1H-pyrazol-4-yl)-2-(1-(4-methoxypyridin-2-yl)ethyl)-7-((1-methyl-1H-imidazol-2-yl)methyl)-3,4-dihydroisoquinolin-1(2H)-one]	1340
Cc1nccn1Cc1cc2c(c(-c3cn(C)nc3C(F)(F)F)c1)CCN(Cc1cccc(Cl)c1)C2=O [Example 226, 2-(3-Chlorobenzyl)-7-((2-methyl-1H-imidazol-1-yl)methyl)-5-(1-methyl-3-(trifluoromethyl)-1H-pyrazol-4-yl)-3,4-dihydroisoquinolin-1(2H)-one]	950
CCn1cc(-c2cc(Cn3ccnc3NC)cc3c2CCN([C@@H](C)c2cc(OC)ccn2)C3=O)c(C(F)(F)F)n1 [Example 161, (S)-5-(1-Ethyl-3-(trifluoromethyl)-1H-pyrazol-4-yl)-2-(1-(4-methoxypyridin-2-yl)ethyl)-7-((2-(methylamino)-1H-imidazol-1-yl)methyl)-3,4-dihydroisoquinolin-1(2H)-one]	< 50

same assay, conditions: Homo sapiens, MV4-11, 120 h, read-out: GI50 on cellular proliferation of MV4:11 human cancer cell lines

SMILES	GI50 [nM]
CCn1cc(-c2cc(Cc3cnc[nH]3)cc3c2CCN([C@@H](C)c2cc(OC)ccn2)C3=O)c(C(F)(F)F)n1 [Example 250, (S)-7-((1H-Imidazol-5-yl)methyl)-5-(1-ethyl-3-(trifluoromethyl)-1H-pyrazol-4-yl)-2-(1-(4-methoxypyridin-2-yl)ethyl)-3,4-dihydroisoquinolin-1(2H)-one]	< 50

same assay, conditions: MV4:11 cells; 5 day incubation; CellTiter-Glo; mean of minimum two replicates; read-out: GI50 on cellular proliferation of MV4:11 human cancer cell lines

SMILES	GI50 [nM]
Cc1cc([C@H](C)N2CCc3c(cc(Cn4ccnc4)cc3-c3cn(C)nc3C(F)(F)F)C2=O)ncc1F [Example 201, (S)-7-((1H-imidazol-1-yl)methyl)-2-(1-(5-fluoro-4-methylpyridin-2-yl)ethyl)-5-(1-methyl-3-(trifluoromethyl)-1H-pyrazol-4-yl)-3,4-dihydroisoquinolin-1(2H)-one]	< 50
